Results from ChEMBL document CHEMBL1148015, “Chipping at large, potent human T-cell leukemia virus type 1 protease inhibitors to uncover smaller, equipotent inhibitors” (Bioorg Med Chem Lett, 2007).
*1 amine or outer side, *2 acyl side, *3 side chain or, on linkers, in order; H or OH if unused. Where a SMILES comes first, the peptide text is derived from it. [ ]: non-standard residue; d: D form. The star is where a group is joined. X1 = O=C([C@@H](O)[C@H](Cc1ccccc1)N[*:1])[*:2]; Thz(5,5-Me2) = CC1(C)SCN[C@@H]1C(=O)O; X2 = N[C@@H](Cc1ccccc1)[C@H](O)C(=O)*

Key:
[1] = test system: Human T-cell leukemia virus type I; test: Inhibition of human recombinant HTLV1 protease at 100 uM
[2] = test system: Human immunodeficiency virus 1; test: Inhibition of recombinant HIV1 protease at 50 nM

Compound | inhibition [1] [%] | inhibition [2] [%]
CSCC[C@H](NC(=O)[C@@H](CSC)NC(=O)[C@H]1N(C(=O)[C@@H](O)[C@H](Cc2ccccc2)NC(=O)[C@@H](NC(=O)[C@H](CCC(N)=O)NC(C)=O)C(C)C)CSC1(C)C)C(N)=O | < 30 | 92
CSCC[C@H](NC(=O)[C@@H](NC(=O)[C@@H]1CCCN1C(=O)[C@@H](O)[C@H](Cc1ccccc1)NC(=O)[C@H](NC(=O)[C@@H](CCC(N)=O)NC(C)=O)C(C)C)C(C)C)C(=O)N[C@@H](Cc1c[nH]cn1)C(=O)O | 49 | < 30
CSCC[C@H](NC(=O)[C@@H](NC(=O)[C@@H]1CCCN1C(=O)[C@@H](O)[C@H](Cc1ccccc1)NC(=O)[C@H](NC(=O)[C@H](N)CCC(N)=O)C(C)C)C(C)C)C(=O)N[C@@H](Cc1c[nH]cn1)C(=O)O | < 30 | < 30
CSCC[C@H](NC(=O)[C@@H](NC(=O)[C@H]1N(C(=O)[C@@H](O)[C@H](Cc2ccccc2)NC(=O)[C@@H](NC(=O)[C@H](C)NC(C)=O)C(C)C)CSC1(C)C)C(C)C)C(N)=O (Ac-AV[X1][Thz(5,5-Me2)]VM-NH2) | 56 | 96
CSCC[C@H](NC(=O)[C@@H](NC(=O)[C@H]1N(C(=O)[C@@H](O)[C@H](Cc2ccccc2)NC(=O)[C@@H](NC(=O)[C@H](Cc2ccccc2)NC(C)=O)C(C)C)CSC1(C)C)C(C)C)C(N)=O (Ac-FV[X1][Thz(5,5-Me2)]VM-NH2) | 74 | 95
CC[C@H](C)[C@H](NC(C)=O)C(=O)N[C@H](C(=O)N[C@@H](Cc1ccccc1)[C@H](O)C(=O)N1CSC(C)(C)[C@H]1C(=O)N[C@H](C(=O)N[C@@H](CCSC)C(N)=O)[C@@H](C)CC)[C@@H](C)CC (Ac-II[X1][Thz(5,5-Me2)]IM-NH2) | 94 | 98
CC[C@H](C)[C@H](NC(C)=O)C(=O)N[C@H](C(=O)N[C@@H](Cc1ccccc1)[C@H](O)C(=O)N1CSC(C)(C)[C@H]1C(=O)N[C@H](C(=O)N[C@@H](Cc1ccccc1)C(N)=O)C(C)C)C(C)C (Ac-IV[X1][Thz(5,5-Me2)]VF-NH2) | 84 | 98
CC[C@H](C)[C@H](NC(=O)[C@@H](NC(=O)[C@H]1N(C(=O)[C@@H](O)[C@H](Cc2ccccc2)NC(=O)[C@@H](NC(=O)[C@@H](NC(C)=O)[C@@H](C)CC)C(C)C)CSC1(C)C)C(C)C)C(N)=O (Ac-IV[X1][Thz(5,5-Me2)]VI-NH2) | 78 | 97
CC[C@H](C)[C@H](NC(C)=O)C(=O)N[C@H](C(=O)N[C@@H](Cc1ccccc1)[C@H](O)C(=O)N1CSC(C)(C)[C@H]1C(=O)N[C@H](C(=O)N[C@@H](CC(C)C)C(N)=O)C(C)C)C(C)C (Ac-IV[X1][Thz(5,5-Me2)]VL-NH2) | 54 | 95
CC[C@H](C)[C@H](NC(C)=O)C(=O)N[C@H](C(=O)N[C@@H](Cc1ccccc1)[C@H](O)C(=O)N1CSC(C)(C)[C@H]1C(=O)N[C@H](C(=O)N[C@@H](CCSC)C(N)=O)C(C)C)C(C)C (Ac-IV[X1][Thz(5,5-Me2)]VM-NH2) | 87 | 98
CC[C@H](C)[C@H](NC(C)=O)C(=O)N[C@H](C(=O)N[C@@H](Cc1ccccc1)[C@H](O)C(=O)N1CSC(C)(C)[C@H]1C(=O)N[C@H](C(=O)N[C@@H](CCC(N)=O)C(N)=O)C(C)C)C(C)C (Ac-IV[X1][Thz(5,5-Me2)]VQ-NH2) | 86 | 95
CC[C@H](C)[C@H](NC(C)=O)C(=O)N[C@H](C(=O)N[C@@H](Cc1ccccc1)[C@H](O)C(=O)N1CSC(C)(C)[C@H]1C(=O)N[C@H](C(=O)N[C@H](C(N)=O)C(C)C)C(C)C)C(C)C (Ac-IV[X1][Thz(5,5-Me2)]VV-NH2) | 70 | 96
CSCC[C@H](NC(=O)[C@@H](NC(=O)[C@H]1N(C(=O)[C@@H](O)[C@H](Cc2ccccc2)NC(=O)[C@@H](NC(=O)[C@H](CC(C)C)NC(C)=O)C(C)C)CSC1(C)C)C(C)C)C(N)=O (Ac-LV[X1][Thz(5,5-Me2)]VM-NH2) | 83 | 99
CSCC[C@H](NC(=O)[C@@H](NC(=O)[C@H]1N(C(=O)[C@@H](O)[C@H](Cc2ccccc2)NC(=O)[C@H](CSC)NC(=O)[C@H](CCC(N)=O)NC(C)=O)CSC1(C)C)C(C)C)C(N)=O (Ac-QC(Me)[X1][Thz(5,5-Me2)]VM-NH2) | 51 | 96
CC[C@H](C)[C@H](NC(=O)[C@H](CCC(N)=O)NC(C)=O)C(=O)N[C@@H](Cc1ccccc1)[C@H](O)C(=O)N1CSC(C)(C)[C@H]1C(=O)N[C@H](C(=O)N[C@@H](CCSC)C(N)=O)C(C)C (Ac-QI[X1][Thz(5,5-Me2)]VM-NH2) | 85 | 95
CSCC[C@H](NC(=O)[C@@H](NC(=O)[C@H]1N(C(=O)[C@@H](O)[C@H](Cc2ccccc2)NC(=O)[C@H](CC(C)C)NC(=O)[C@H](CCC(N)=O)NC(C)=O)CSC1(C)C)C(C)C)C(N)=O (Ac-QL[X1][Thz(5,5-Me2)]VM-NH2) | 54 | 83
CC[C@H](C)[C@H](NC(=O)[C@H]1N(C(=O)[C@@H](O)[C@H](Cc2ccccc2)NC(=O)[C@@H](NC(=O)[C@H](CCC(N)=O)NC(C)=O)C(C)C)CSC1(C)C)C(=O)N[C@@H](CCSC)C(N)=O (Ac-QV[X1][Thz(5,5-Me2)]IM-NH2) | 74 | 95
CSCC[C@H](NC(=O)[C@H](CC(C)C)NC(=O)[C@H]1N(C(=O)[C@@H](O)[C@H](Cc2ccccc2)NC(=O)[C@@H](NC(=O)[C@H](CCC(N)=O)NC(C)=O)C(C)C)CSC1(C)C)C(N)=O (Ac-QV[X1][Thz(5,5-Me2)]LM-NH2) | 30 | 84
CSCC[C@H](NC(=O)[C@@H](NC(=O)[C@H]1N(C(=O)[C@@H](O)[C@H](Cc2ccccc2)NC(=O)[C@@H](NC(=O)[C@H](CCC(N)=O)NC(C)=O)C(C)C)CSC1(C)C)[C@@H](C)O)C(N)=O (Ac-QV[X1][Thz(5,5-Me2)]TM-NH2) | < 30 | 78
CSCC[C@H](NC(=O)[C@@H](NC(=O)[C@H]1N(C(=O)[C@@H](O)[C@H](Cc2ccccc2)NC(=O)[C@@H](NC(=O)[C@H](CCC(N)=O)NC(C)=O)C(C)C)CSC1(C)C)C(C)C)C(N)=O (Ac-QV[X1][Thz(5,5-Me2)]VM-NH2) | 66 | 96
CSCC[C@H](NC(=O)[C@@H](NC(=O)[C@H]1N(C(=O)[C@@H](O)[C@H](Cc2ccccc2)NC(=O)[C@@H](NC(=O)[C@@H](NC(C)=O)C(C)C)C(C)C)CSC1(C)C)C(C)C)C(N)=O (Ac-VV[X1][Thz(5,5-Me2)]VM-NH2) | 77 | 95
CSCC[C@H](NC(=O)[C@@H](NC(=O)[C@@H]1CCCN1C(=O)[C@@H](O)[C@H](Cc1ccccc1)NC(=O)[C@@H](NC(C)=O)C(C)C)C(C)C)C(=O)N[C@@H](Cc1c[nH]cn1)C(=O)O (Ac-V[X1]PVMH-OH) | < 30 | < 30
CSCC[C@H](NC(=O)[C@@H](NC(=O)[C@@H]1CCCN1C(=O)[C@@H](O)[C@H](Cc1ccccc1)NC(C)=O)C(C)C)C(=O)N[C@@H](Cc1c[nH]cn1)C(=O)O (Ac-[X1]PVMH-OH) | < 30 | < 30
CC(C)[C@H](NC(=O)[C@H](CCC(N)=O)NC(=O)[C@@H]1CCCN1)C(=O)N[C@@H](Cc1ccccc1)[C@H](O)C(=O)N1CCC[C@H]1C(N)=O (H-PQV[X1]P-NH2) | < 30 | < 30
CC(C)[C@H](NC(=O)[C@@H]1CCCN1C(=O)[C@@H](O)[C@H](Cc1ccccc1)NC(=O)[C@@H](NC(=O)[C@H](CCC(N)=O)NC(=O)[C@@H]1CCCN1)C(C)C)C(N)=O (H-PQV[X1]PV-NH2) | < 30 | < 30
CSCC[C@H](NC(=O)[C@@H](NC(=O)[C@@H]1CCCN1C(=O)[C@@H](O)[C@H](Cc1ccccc1)NC(=O)[C@@H](NC(=O)[C@H](CCC(N)=O)NC(=O)[C@@H]1CCCN1)C(C)C)C(C)C)C(N)=O (H-PQV[X1]PVM-NH2) | 86 | < 30
CSCC[C@H](NC(=O)[C@@H](NC(=O)[C@@H]1CCCN1C(=O)[C@@H](O)[C@H](Cc1ccccc1)NC(=O)[C@@H](NC(=O)[C@H](CCC(N)=O)NC(=O)[C@@H]1CCCN1)C(C)C)C(C)C)C(=O)N[C@@H](Cc1cnc[nH]1)C(=O)O (H-PQV[X1]PVMH-OH) | 94 | < 30
CSCC[C@H](NC(=O)[C@@H](NC(=O)[C@H]1N(C(=O)[C@@H](O)[C@H](Cc2ccccc2)NC(=O)[C@@H](NC(=O)[C@H](CCC(N)=O)NC(=O)[C@@H]2CCCN2)C(C)C)CSC1(C)C)C(C)C)C(=O)N[C@@H](Cc1c[nH]cn1)C(=O)O (H-PQV[X1][Thz(5,5-Me2)]VMH-OH) | > 99 | 58
CSCC[C@H](NC(=O)[C@@H](NC(=O)[C@@H]1CCCN1C(=O)[C@@H](O)[C@H](Cc1ccccc1)NC(=O)[C@@H](N)C(C)C)C(C)C)C(=O)N[C@@H](Cc1c[nH]cn1)C(=O)O (H-V[X1]PVMH-OH) | < 30 | < 30
CSCC[C@H](NC(=O)[C@@H](NC(=O)[C@@H]1CCCN1C(=O)[C@@H](O)[C@@H](N)Cc1ccccc1)C(C)C)C(=O)N[C@@H](Cc1c[nH]cn1)C(=O)O (X2-PVMH-OH) | < 30 | < 30
